Test results from publication PMC7922932, “Molecular Dissection of Escherichia coli CpdB: Roles of the N Domain in Catalysis and Phosphate Inhibition, and of the C Domain in Substrate Specificity and Adenosine Inhibition” (International Journal of Molecular Sciences, 2021).
Read-outs that look alike come from different tables or passages of the source.

How the values were obtained:
CpdB_Ndom [1] = type: biochemical, Escherichia coli; details: CpdB_Ndom versus CpdB; bis-4-NPP as substrate
CpdB_Ndom [2] = target: T1, CpdB_Ndom (Escherichia coli, UniProt P08331, D305N/I97V/M87I); type: biochemical; details: CpdB_Ndom; 750 µM bis-4-NPP as the substrate; single illustrative experiments
T1 construct: GST (N, cleaved yes); made in house; host or cells: E. coli BL21
T1 sequence (P08331 20-354 M87I/I97V/D305N): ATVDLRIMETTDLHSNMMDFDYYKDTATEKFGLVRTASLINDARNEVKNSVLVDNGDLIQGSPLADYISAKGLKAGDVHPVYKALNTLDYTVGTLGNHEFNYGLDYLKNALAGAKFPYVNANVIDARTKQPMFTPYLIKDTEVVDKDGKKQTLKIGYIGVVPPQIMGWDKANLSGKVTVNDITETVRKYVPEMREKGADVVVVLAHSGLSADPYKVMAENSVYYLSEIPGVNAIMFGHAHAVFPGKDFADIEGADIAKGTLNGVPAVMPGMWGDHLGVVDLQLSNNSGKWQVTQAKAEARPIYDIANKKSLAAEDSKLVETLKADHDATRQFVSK

Mature CpdB [3] = target: T2, Mature CpdB (Escherichia coli, UniProt P08331); assay: biochemical; type: biochemical; parameters: A structural model of mature CpdB (aa 20–647) was built; GST (N, cleaved yes); made in house; host or cells: E. coli BL21
T2 sequence (P08331 20-647): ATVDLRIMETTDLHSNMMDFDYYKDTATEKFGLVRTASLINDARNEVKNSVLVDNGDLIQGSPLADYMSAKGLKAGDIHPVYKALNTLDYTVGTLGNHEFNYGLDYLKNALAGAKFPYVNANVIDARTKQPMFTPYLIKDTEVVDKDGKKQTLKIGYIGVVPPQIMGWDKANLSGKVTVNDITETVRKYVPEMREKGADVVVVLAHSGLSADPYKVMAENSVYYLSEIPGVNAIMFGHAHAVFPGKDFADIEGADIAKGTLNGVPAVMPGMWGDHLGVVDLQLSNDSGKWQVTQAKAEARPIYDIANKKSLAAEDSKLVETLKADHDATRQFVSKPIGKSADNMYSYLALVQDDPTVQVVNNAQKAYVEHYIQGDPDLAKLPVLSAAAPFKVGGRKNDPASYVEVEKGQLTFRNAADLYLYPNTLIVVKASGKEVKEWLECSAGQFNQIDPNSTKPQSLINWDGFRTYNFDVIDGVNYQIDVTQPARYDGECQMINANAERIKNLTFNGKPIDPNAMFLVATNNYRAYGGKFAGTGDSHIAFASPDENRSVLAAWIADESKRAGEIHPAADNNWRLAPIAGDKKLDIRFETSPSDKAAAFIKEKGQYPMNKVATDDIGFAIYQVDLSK
Method: (§1) Reaction mixtures of 100 µL contained, besides the needed amount of enzyme (i.e., 0.02–0.05 µg/mL of mature CpdB, 2 µg/mL of a CpdB point mutant, or 0.2 µg/mL of CpdB_Ndom), 50 mM Tris [Tris(hydroxymethyl)aminomethane]-HCl pH 7.5 (adjusted at 37 °C), 2 mM MnCl2, 0.1 mg/mL bovine serum albumin, and the indicated concentrations of bis-4-NPP and the compound tested as inhibitor. Incubations performed at 37 °C were stopped by addition of 0.5 mL of 200 mM Tris, pH 8.9, 5 mM EDTA (ethylenediaminetetraacetate), immediately followed by A405 measurement (ε = 18.1 mM^−1 cm^−1). This termination procedure was used instead of the addition of a high NaOH concentration, to avoid the known formation of brown precipitates of air-oxidized Mn^2+ hydroxide. On occasions, when a higher sensitivity was needed, reaction mixtures of 500 µL were implemented and termination was performed with 0.1 mL 1M Tris, pH 8.9, 30 mM EDTA.

CpdB_Ndom [4] = target: T1, CpdB_Ndom; assay: biochemical
Method: Substrate saturation experiments were run in the absence and the presence of one of these inhibitors at fixed concentrations (Figure 7).
as §1

[5] = target: T3, His^117Ala-CpdB (H117A-CpdB) (Escherichia coli, UniProt P08331, D305N/H117A/I514V/I97V/M87I/N471D/S472N); assay: biochemical
T3 construct: A structural model of mature CpdB (aa 20–647) was built; GST (N, cleaved yes); made in house; host or cells: E. coli BL21
T3 sequence (P08331 20-647 M87I/I97V/H117A/D305N/N471D/S472N/I514V): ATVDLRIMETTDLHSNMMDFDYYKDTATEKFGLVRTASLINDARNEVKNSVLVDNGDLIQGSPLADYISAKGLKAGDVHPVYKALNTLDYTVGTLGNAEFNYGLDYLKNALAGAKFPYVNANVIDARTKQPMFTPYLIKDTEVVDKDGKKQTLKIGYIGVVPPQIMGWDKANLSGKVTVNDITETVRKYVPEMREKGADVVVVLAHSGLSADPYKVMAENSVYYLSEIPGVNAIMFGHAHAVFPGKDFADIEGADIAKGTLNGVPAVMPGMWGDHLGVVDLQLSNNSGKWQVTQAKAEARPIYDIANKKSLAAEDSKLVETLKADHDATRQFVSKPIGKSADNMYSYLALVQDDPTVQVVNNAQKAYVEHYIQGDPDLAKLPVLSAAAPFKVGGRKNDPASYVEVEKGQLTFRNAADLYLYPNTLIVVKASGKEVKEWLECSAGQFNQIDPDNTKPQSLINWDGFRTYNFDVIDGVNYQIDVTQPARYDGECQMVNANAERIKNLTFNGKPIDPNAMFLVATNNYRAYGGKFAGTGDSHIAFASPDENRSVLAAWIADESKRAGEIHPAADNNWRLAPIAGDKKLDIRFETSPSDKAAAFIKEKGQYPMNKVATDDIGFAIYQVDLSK
Method: (§2) The two point mutants His^117Ala and Tyr^544Ala of mature CpdB were also tested for the inhibition of the hydrolysis of bis-4-NPP by adenosine.
as §1

[6] = target: T4, Tyr^544Ala-CpdB (Y544A-CpdB) (Escherichia coli, UniProt P08331, D305N/I514V/I97V/M87I/N471D/S472N/Y544A); assay: biochemical
T4 construct: A structural model of mature CpdB (aa 20–647) was built; GST (N, cleaved yes); made in house; host or cells: E. coli BL21
T4 sequence (P08331 20-647 M87I/I97V/D305N/N471D/S472N/I514V/Y544A): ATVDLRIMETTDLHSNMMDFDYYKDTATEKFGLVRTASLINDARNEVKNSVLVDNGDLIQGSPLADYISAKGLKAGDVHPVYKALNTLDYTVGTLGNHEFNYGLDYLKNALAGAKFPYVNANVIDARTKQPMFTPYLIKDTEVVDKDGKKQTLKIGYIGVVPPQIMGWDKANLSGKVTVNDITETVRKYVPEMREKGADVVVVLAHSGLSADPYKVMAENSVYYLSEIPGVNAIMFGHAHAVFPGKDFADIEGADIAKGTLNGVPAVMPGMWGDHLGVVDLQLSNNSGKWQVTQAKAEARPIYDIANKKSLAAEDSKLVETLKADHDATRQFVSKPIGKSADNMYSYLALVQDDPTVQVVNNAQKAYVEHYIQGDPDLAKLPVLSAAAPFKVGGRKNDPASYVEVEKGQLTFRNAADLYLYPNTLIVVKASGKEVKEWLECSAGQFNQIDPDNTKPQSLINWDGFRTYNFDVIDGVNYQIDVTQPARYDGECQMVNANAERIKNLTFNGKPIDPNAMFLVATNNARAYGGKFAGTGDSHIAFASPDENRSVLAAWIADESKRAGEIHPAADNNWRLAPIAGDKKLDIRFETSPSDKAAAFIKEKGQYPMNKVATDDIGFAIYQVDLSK
Method: as §2, §1

Mature CpdB [7] = target: T2, Mature CpdB; assay: biochemical
Source text: In this approach, inhibitors were used as probes for the relevance of those enzyme sites, irrespective of the physiological character and concentrations of the compounds used.
The procedures and detailed conditions to measure the initial rates of phosphohydrolytic reactions were as earlier described [4]. […] The same assay was used with 2′,3′- or 3′,5′-cyclic nucleotides, CDP-choline and bis-4-NPP except that an excess of alkaline phosphatase was included in the reaction mixture as auxiliary enzyme.
The procedures followed to derive kinetic parameters kcat, KM and Ki from initial rate vs. substrate concentration datasets, either in the presence or the absence of inhibitor, were as described elsewhere [49]. Datasets obtained with different substrates in the absence of inhibitors were used to derive kcat and KM values by adjusting the Michaelis-Menten equation to the experimental points by non-linear regression. […] Each one of these equations was simultaneously adjusted (global fit) by nonlinear regression to the three saturation curves of each inhibition experiment, using the Solver function of Microsoft Excel. During the adjustments, Vmax, KM and Ki were left to fluctuate. […] In each set of experiments, the type of inhibition that gave the best fit was used as the model to estimate Ki values.

Molecule | Ki increase in the absence of the C-terminal domain (CpdB_Ndom [1]) | IC50 (CpdB_Ndom [2]) | IC50 (Mature CpdB [3]; mature CpdB, 750 µM bis-4-NPP as the substrate, single illustrative experiments, read-out: IC50) | Ki (Mature CpdB [3]; mature CpdB, substrate bis-4-NPP, global fit, mixed partial inhibition (Figure 5), values without SD are single experiments, read-out: Inhibition constant (Ki)) | Ki (CpdB_Ndom [4]; CpdB_Ndom, substrate bis-4-NPP, global fit, complete competitive inhibition (Figure 7), read-out: Inhibition constant (Ki)) | IC50 [5] | IC50 [6] | IC50 (Mature CpdB [3]) | Ki (Mature CpdB [3]) | IC50 (CpdB_Ndom [4]) | Ki (CpdB_Ndom [4]) | IC50 (Mature CpdB [7]) | Ki (Mature CpdB [7])
phosphate | did not change | 1.7 mM | 9 mM | 1.38 ± 0.34 mM | 1.06 ± 0.21 mM | – | – | – | – | – | – | – | –
Nc1ncnc2c1ncn2[C@@H]1O[C@H](CO)[C@@H](O)[C@H]1O [Adenosine, adenosine] | – | – | – | – | – | 2 mM | ~30 mM | 0.87 mM | 0.16 mM | > 10 mM | 48 mM | 3.25 mM | 0.041 ± 0.017 mM
